{"source": "patent US11344553B2", "about": "“Substituted pyrazolopyrimidines useful as kinases inhibitors” (TELIGENE LTD, priority 2017, dated 2022)", "key": {"[1]": {"experiment": "One-month toxicity study in rat", "format": "in vivo", "settings": "30 mg/kg and 100 mg/kg, end of administration and recovery periods", "method": "A representative number of compounds, including Compound 1 (LOXO-101) and Compound 3, were tested in a typical one-month toxicity studies in rat with dosages of 30 mg/kg and 100 mg/kg."}, "[2]": {"experiment": "Solubility measurement in pH 4.0 buffer (HPLC)", "format": "physicochemical", "settings": "pH 4.0 buffer solution (20 mM), aqueous buffer, thermodynamic from solid; pH 4.0 buffer (20 mM), 25° C.", "method": "(c) Solubility Measurement of a Representative Number of Compounds\nSolubility measurement procedure may include:\nPreparation of reference standard solution: 2 mg of the testing compound was added individually to 100 mL volumetric flask each. The compound was diluted with acetonitrile to 100 mL.\nPreparation of sample solution: 2 mg of the testing compound was added individually to 2 mL eppendorf tube (EP), followed by the addition of 1 mL of pH 4.0 buffer solution (20 mM). The solution was shaken for 2 minutes and left for 30 minutes at 25° C. After standing for 30 minutes, precipitate was formed at the bottom of the EP. The solution was filtered through a 0.2 μm membrane filter, and then diluted by 50 times with water.\nThe standard and sample solutions were injected into the HPLC on a Shim-Pack CLC-ODS C18 column (150 mm×6.0 mm, Sum) with the same volume. The mobile phase consists of acetonitrile with 2% trichloromethane—20 mM KH2PO4 buffer (pH=7.0) at a flow rate of 1 mL/minutes (40:60). The detection wavelength was at 264 nm. Calculation: solubility of sample=the concentration of standard×Area of sample×50/Area of standard.\nThe following Table C lists solubility data for selected compounds."}, "TEL-NTRK1-BaF3 cell": {"tested_on": "TEL-NTRK1-BaF3 cell", "experiment": "TEL-NTRK1-BaF3 cell assay (CellTiter-Glo viability, 72 hours)", "format": "cell-based", "method": "(b) A Representative Number of Compounds were Assayed Against TEL-NTRK1-BaF3 Cell.\nI. Prepare Compound Plate\nCompounds to be assayed were dissolved in 100% DMSO to prepare a […] mother solution, which underwent 3× series dilution to prepare solutions with concentrations of 10 mM, 3.333 mM, 1.111 mM, 0.370 mM, 0.123 mM, 0.041 mM, 0.014 mM, all of which stored in 0.5 mL sterile eppendorf (Corning, N.Y., USA). At the same time prepare a blank sample as control containing DMSO only with the same volume as the compound solutions. The 9 samples on the Compound plate were store at −20° C. in vacuum.\nII. Cell Culture Conditions\nTEL-NTRK1-BaF3 cell line was cultured in RPMI 1640 (Corning, N.Y., USA)+10% fetal calf serum (Gibco/Invitrogen, USA) for two generations after resuscitation. Stored for future use.\nIII. Assay and Data Analysis\nCells (2,000-2,500 cells per well) at log phase were harvested and inoculated in wells of a white, opaque cell culture plate (Corning 3570, NY, USA). The volume of suspensions comprising cells in each well was 100 μL. Compounds from the Compound plate were added 0.1 μL per well to the cell culture plate to reach a final compound concentrations of 10 μM, 3.3 μM, 1.1 μM, 0.37 μM, 0.12 μM, 0.04 μM, and 0.014 μM. Incubated at 37° C. and 5% CO2 culture chamber for 72 hours. Ten μL CellTiter-Glo® Luminescent Cell Viability Assay Reagent was added to each well, wait for 10 minutes, then read using Evision Plate-Reader.\nThe following Table B lists compounds representative of the disclosure and their activity in TEL-NTRK1-BaF3 Cell assay."}, "[3]": {"experiment": "Pharmacokinetic study, IV and oral, bioavailability", "format": "in vivo", "settings": "plasma, oral; rat; 2 mg/kg IV, 5 mg/kg orally; read-out: F (%) oral bioavailability", "excerpt": "(d) Pharmacokinetic Study of a Representative Number of Compounds A representative protocol for the PK (pharmacokinetic) assay was as followed: Compounds were given either IV or orally to the same animals. […] Analysis: LC-MS/MS was used to calculate PK parameters: t1/2, tmax, Cmax, Vss and AUC, etc. The following TABLE D lists selected compounds and their bioavailability."}, "[4]": {"experiment": "Brain penetration (brain to plasma ratio)", "format": "in vivo"}, "TRK-A": {"biological_target": "TRK-A (Homo sapiens (Human), UniProt P04629)", "sequence (P04629 33-796, species assumed)": "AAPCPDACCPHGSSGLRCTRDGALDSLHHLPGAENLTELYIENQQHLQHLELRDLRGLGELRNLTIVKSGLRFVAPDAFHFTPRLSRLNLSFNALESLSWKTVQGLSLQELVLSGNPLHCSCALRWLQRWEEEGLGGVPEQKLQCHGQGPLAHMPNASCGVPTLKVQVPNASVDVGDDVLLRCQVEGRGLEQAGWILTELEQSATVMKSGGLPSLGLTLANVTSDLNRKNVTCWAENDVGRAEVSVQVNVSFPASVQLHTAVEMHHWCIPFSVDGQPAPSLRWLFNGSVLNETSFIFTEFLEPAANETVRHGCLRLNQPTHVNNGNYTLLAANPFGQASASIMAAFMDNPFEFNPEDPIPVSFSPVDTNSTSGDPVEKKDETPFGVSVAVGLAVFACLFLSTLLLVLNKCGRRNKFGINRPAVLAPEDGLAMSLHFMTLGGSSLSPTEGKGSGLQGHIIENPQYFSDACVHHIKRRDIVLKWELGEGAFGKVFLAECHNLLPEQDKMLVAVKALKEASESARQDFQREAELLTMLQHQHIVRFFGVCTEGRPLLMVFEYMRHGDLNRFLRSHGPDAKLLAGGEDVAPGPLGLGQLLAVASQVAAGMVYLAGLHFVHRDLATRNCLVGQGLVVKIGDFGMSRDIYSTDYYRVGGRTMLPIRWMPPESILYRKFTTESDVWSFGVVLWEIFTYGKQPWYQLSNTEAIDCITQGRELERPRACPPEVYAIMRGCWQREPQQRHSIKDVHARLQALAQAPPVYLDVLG", "experiment": "In vitro kinase activity inhibition assay (Caliper), TRK-A", "format": "biochemical", "method": "(§1) (a) An In Vitro Assay which Determines the Ability of a Test Compound to Inhibit Kinase Activity\n(§2) I. Prepare 1× Kinase Base Buffer and Stop Buffer for Testing Kinases\n1) 1× Kinase base buffer (for TRK-A)\n(§3) II. Prepare Source Plate with Compound\n(§4) 1) Dilute the compound to 50× of the final concentration in reaction by 100% DMSO. Transfer 100 μl of this compound dilution to a well in a 96-well plate. For example, if the desired highest inhibitor concentration is 10 μM, then prepare a 500 μM of compound DMSO solution in this step.\n(§5) 2) Perform 3× series dilution of the compound dilution obtained in step 1) with 100% DMSO to provide 9 more diluted solutions of the compound.\n(§6) 3) Add 100 μl of 100% DMSO to two empty wells for no compound control and no enzyme control in the same 96-well plate. Mark the plate as source plate.\n(§7) 4) Prepare intermediate plate\n(§8) Transfer 10 μl of compound from the source plate to a new 96-well plate as the intermediate plate.\n(§9) Add 90 μl of 1× Kinase base buffer to each well of the intermediate plate.\n(§10) Mix the compounds in intermediate plate for […] on a shaker.\nTransfer 5 μl of each well from the 96-well intermediate plate to a 384-well plate in duplicates. For example, A1 of the 96-well plate is transferred to A1 and A2 of the 384-well plate. A2 of the 96-well plate is transferred to A3 and A4 of the 384-well plate, and so on. […]"}, "ROS1": {"biological_target": "ROS1 (Homo sapiens (Human), UniProt P08922)", "sequence (P08922 28-2347, species assumed)": "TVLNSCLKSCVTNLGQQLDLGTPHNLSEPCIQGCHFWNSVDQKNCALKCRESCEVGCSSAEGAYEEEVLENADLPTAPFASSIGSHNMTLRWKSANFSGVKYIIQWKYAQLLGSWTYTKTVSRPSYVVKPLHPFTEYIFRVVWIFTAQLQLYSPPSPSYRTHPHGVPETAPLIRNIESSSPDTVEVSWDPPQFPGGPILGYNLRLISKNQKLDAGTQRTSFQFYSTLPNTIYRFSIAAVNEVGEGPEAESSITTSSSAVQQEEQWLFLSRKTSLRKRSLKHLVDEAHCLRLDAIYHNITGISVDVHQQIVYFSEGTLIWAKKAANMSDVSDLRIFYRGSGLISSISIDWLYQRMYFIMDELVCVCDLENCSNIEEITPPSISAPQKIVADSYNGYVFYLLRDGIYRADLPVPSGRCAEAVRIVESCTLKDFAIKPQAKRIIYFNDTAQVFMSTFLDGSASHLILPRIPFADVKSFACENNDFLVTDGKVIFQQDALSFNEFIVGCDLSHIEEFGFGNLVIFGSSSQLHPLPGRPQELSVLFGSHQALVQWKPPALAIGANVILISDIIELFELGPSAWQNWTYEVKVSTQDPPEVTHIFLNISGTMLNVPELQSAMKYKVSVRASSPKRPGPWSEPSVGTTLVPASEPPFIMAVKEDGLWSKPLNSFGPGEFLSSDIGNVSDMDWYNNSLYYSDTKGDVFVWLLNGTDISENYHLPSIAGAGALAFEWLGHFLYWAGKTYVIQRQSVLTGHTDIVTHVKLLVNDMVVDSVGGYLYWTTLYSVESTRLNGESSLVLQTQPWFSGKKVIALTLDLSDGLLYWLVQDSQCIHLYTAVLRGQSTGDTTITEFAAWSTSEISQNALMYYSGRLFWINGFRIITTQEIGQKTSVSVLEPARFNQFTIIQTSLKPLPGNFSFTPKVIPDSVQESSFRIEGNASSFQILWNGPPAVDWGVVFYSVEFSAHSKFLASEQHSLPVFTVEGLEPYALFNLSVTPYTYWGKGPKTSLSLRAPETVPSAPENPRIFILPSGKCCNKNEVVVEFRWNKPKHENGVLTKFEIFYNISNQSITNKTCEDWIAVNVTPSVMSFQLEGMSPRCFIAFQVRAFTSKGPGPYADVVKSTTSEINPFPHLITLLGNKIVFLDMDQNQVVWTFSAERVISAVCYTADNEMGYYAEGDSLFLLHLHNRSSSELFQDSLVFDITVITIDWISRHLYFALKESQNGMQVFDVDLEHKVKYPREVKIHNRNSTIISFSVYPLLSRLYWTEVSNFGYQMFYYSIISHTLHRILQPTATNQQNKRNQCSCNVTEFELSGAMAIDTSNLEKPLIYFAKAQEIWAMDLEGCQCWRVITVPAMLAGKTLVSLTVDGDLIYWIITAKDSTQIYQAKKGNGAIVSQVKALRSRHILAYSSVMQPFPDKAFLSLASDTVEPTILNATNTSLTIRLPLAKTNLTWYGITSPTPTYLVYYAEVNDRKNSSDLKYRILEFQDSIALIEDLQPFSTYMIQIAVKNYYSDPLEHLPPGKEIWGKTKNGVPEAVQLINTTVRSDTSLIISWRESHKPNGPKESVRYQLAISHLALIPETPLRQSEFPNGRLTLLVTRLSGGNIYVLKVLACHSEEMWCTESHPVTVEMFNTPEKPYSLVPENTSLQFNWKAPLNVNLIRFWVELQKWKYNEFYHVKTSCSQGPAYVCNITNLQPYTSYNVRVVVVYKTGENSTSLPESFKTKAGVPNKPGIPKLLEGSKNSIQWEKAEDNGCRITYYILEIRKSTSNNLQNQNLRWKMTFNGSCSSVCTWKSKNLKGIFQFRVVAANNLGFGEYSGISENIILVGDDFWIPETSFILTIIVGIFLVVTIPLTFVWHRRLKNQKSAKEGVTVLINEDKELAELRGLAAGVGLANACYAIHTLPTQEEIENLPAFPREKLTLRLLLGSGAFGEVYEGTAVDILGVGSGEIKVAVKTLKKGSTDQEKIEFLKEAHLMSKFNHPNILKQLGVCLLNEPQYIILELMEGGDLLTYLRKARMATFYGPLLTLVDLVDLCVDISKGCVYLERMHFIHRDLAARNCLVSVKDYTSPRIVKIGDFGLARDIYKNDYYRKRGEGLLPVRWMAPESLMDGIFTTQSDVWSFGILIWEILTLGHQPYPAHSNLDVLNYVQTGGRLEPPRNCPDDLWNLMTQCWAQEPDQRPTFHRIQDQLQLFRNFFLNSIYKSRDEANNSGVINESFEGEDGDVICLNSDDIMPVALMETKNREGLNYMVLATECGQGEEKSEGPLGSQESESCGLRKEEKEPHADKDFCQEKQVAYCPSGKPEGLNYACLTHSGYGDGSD", "experiment": "In vitro kinase activity inhibition assay (Caliper), ROS1", "format": "biochemical", "settings": "read-out: ROS-1 IC50", "method": "as §1, §2, §3, §4, §5, §6, §7, §8, §9, §10\nTransfer 5 μl of each well from the 96-well intermediate plate to a 384-well plate in duplicates. For example, A1 of the 96-well plate is transferred to A1 and A2 of the 384-well plate. A2 of the 96-well plate is transferred to A3 and A4 of the 384-well plate, and so on.\n1) Prepare 2.5× enzyme solution Add kinase in 1× kinase base buffer. […]"}}, "note": "Like-named read-outs stand apart in the source and are kept apart here.", "data": [{"smiles": "O=C(Nc1cnn2ccc(N3CCC[C@@H]3c3cc(F)ccc3F)nc12)N1CC[C@H](O)C1", "note": "[Compound 1, reference compound]", "values": [{"measurement": "#LYMPH and/or % LYMPH in blood", "setting": "[1]", "result": "slight decrease"}, {"measurement": "#NEUT and/or % NEUT in blood", "setting": "[1]", "result": "slight increase trend"}, {"measurement": "solubility", "setting": "[2]", "result": 310, "unit": "µg/mL"}, {"measurement": "GI50", "setting": "TEL-NTRK1-BaF3 cell; 72 h", "result": 25, "unit": "nM"}, {"measurement": "bioavailability", "setting": "[3]", "result": 33, "unit": "%"}, {"measurement": "brain penetration", "setting": "[4]; in vivo", "result": "low brain penetration"}]}, {"smiles": "CN1CCN(Cc2ccc(C(=O)Nc3cnn4ccc(N5CCC[C@@H]5c5cc(F)ccc5F)nc34)cc2)CC1", "note": "[Compound 2]", "values": [{"measurement": "GI50", "setting": "TEL-NTRK1-BaF3 cell", "result": "< 1", "unit": "nM"}, {"measurement": "IC50", "setting": "TRK-A", "result": 1.8, "unit": "nM"}]}, {"smiles": "CN1CCN(Cc2ccc(C(=O)Nc3cnn4ccc(N5CCC[C@@H]5c5cc(F)ccc5F)nc34)cc2)CC1", "note": "[Compound 3]", "values": [{"measurement": "solubility", "setting": "[2]", "result": 36100, "unit": "µg/mL"}, {"measurement": "GI50", "setting": "TEL-NTRK1-BaF3 cell", "result": 3, "unit": "nM"}, {"measurement": "IC50", "setting": "ROS1", "result": 104, "unit": "nM"}, {"measurement": "bioavailability", "setting": "[3]", "result": 56, "unit": "%"}, {"measurement": "Kp", "setting": "[4]; brain", "result": 5.47}, {"measurement": "IC50", "setting": "TRK-A", "result": 3, "unit": "nM"}]}, {"smiles": "CCS(=O)(=O)Nc1ccc(C(=O)Nc2cnn3ccc(N4CCC[C@@H]4c4cc(F)ccc4F)nc23)cc1", "note": "[Compound 4]", "values": [{"measurement": "solubility", "setting": "[2]", "result": 310, "unit": "µg/mL"}, {"measurement": "GI50", "setting": "TEL-NTRK1-BaF3 cell; 72 h", "result": 24, "unit": "nM"}]}]}
